How the values were obtained:
Adenosine A3 receptor = molecular target: T1, Adenosine A3 receptor (Homo sapiens, UniProt P0DMS8); test: radioligand displacement, filtration, Cheng-Prusoff; type: binding; settings: [3H]AB-MECA; receptor preparation from HEK293 cells
T1 construct: gene ADORA3; cloned human receptor in HEK293 cells; cells provided by Cerep
T1 sequence (P0DMS8 1-318): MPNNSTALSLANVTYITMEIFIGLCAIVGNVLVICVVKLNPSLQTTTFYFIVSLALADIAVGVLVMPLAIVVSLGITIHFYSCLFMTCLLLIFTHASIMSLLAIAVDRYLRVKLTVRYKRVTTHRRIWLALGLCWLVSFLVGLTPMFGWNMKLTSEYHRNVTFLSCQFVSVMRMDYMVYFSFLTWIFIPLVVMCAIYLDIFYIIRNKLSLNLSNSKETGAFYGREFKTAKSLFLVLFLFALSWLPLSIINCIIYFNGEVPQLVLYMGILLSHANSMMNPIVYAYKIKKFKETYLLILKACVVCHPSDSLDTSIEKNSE
From the text: radioligand displacement, filtration, Cheng-Prusoff on Adenosine A3 receptor

[1] = molecular target: T2, Phosphodiesterase 4 rolipram binding; test: as above; settings: [3H]rolipram; total brain; high-affinity rolipram-binding site
T2 construct: gene Pde4a; provided by Cerep
From the text: radioligand displacement, filtration, Cheng-Prusoff on Phosphodiesterase 4 rolipram binding

[2] = molecular target: T3, Adenosine A1 receptor (A1R) (Homo sapiens, UniProt P30542); test: as above; type: binding; settings: [3H]DPCPX; receptor preparation from CHO cells; antagonist
T3 construct: gene ADORA1; cloned human receptor in CHO cells; cells provided by Cerep
T3 sequence (P30542 1-326): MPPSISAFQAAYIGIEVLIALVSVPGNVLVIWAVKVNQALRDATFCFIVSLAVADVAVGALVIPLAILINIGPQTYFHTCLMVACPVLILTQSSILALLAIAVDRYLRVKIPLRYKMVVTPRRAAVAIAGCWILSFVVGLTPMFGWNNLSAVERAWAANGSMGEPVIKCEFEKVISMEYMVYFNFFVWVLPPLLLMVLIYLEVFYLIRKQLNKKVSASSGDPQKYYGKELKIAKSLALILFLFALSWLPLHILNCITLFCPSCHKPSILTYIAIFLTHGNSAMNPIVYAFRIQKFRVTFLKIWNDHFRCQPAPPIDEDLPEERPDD
From the text: radioligand displacement, filtration, Cheng-Prusoff on Adenosine A1 receptor (A1R)

Adenosine A2A receptor = molecular target: T4, Adenosine A2A receptor (Homo sapiens, UniProt P29274); test: as above; type: binding; settings: [3H]CGS21680; receptor preparation from HEK293 cells
T4 construct: gene ADORA2A; cloned human receptor in HEK293 cells; cells provided by Cerep
T4 sequence (P29274 whole entry): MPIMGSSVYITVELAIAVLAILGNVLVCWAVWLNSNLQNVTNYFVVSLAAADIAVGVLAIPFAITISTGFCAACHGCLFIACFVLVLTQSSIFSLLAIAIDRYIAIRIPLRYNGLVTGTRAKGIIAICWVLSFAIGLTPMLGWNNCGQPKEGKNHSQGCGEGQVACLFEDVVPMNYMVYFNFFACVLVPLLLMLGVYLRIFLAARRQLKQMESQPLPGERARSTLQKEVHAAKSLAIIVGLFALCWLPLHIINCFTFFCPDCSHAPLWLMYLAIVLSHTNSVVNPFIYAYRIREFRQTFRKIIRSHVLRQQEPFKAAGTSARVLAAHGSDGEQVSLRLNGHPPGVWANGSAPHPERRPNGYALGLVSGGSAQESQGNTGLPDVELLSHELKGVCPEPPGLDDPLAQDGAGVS
From the text: radioligand displacement, filtration, Cheng-Prusoff on Adenosine A2A receptor

[3] = molecular target: T5, Phosphodiesterase 4 enzyme; test: radiometric enzyme inhibition assay, scintillation counting; type: biochemical; settings: [3H]cAMP substrate; enzyme preparation from U-937 cells
T5 construct: gene PDE4A; native enzyme preparation from U-937 cells; provided by Cerep
From the text: radiometric enzyme inhibition assay, scintillation counting on Phosphodiesterase 4 enzyme

Adenosine A2B receptor = molecular target: T6, Adenosine A2B receptor (Homo sapiens, UniProt P29275); test: radioligand displacement, filtration, Cheng-Prusoff; type: binding; settings: [3H]DPCPX; receptor preparation from HEK293 cells
T6 construct: gene ADORA2B; cloned human receptor in HEK293 cells; cells provided by Cerep
T6 sequence (P29275 1-332): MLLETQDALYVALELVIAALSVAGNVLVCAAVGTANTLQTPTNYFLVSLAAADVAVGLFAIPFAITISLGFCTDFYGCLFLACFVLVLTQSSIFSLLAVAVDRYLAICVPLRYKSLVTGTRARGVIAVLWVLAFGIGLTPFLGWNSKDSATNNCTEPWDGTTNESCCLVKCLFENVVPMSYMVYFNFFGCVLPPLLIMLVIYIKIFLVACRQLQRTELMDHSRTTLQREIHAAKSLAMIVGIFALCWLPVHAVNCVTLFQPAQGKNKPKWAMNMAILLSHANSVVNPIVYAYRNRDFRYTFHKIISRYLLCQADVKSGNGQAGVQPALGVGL
From the text: radioligand displacement, filtration, Cheng-Prusoff on Adenosine A2B receptor

- SLV329 Affinity (Adenosine A3 receptor): 6.9±0.1
- SLV329 Affinity [1]: 6.1±0.2
- SLV329 Affinity [2]: 9.2±0.2
- SLV329 Affinity (Adenosine A2A receptor): 7.2±0.2
- SLV329 Affinity [3]: 5.4±0.1
- SLV329 Affinity (Adenosine A2B receptor): 6.3±0.1
Substance: SLV329

Source: article PMC3053401, “Renal Effects of the Novel Selective Adenosine A1 Receptor Blocker SLV329 in Experimental Liver Cirrhosis in Rats” (PLoS ONE, 2011)
